# Tests used:
# benzodiazepine receptors = assay: Displacement of 3H-flunitrazepam binding in vitro (rat forebrain); conditions: 3H-flunitrazepam 1.0 nM, 0° C.
# benzodiazepin receptors = assay: Inhibition of 3H-flunitrazepam binding in vivo (mouse forebrain); conditions: mice, s.c.; 3H-flunitrazepam i.v. 15 min later, killed after additional 20 min; 35 min
# Experimental: The displacement activity of the compounds of the invention has been determined by determined the IC50 value and ED50 value.
# The ED50 value represents the dose (mg/kg) of a test substance which causes the specific binding of flunitrazepam to benzodiazepin receptors in a living brain to be reduced to 50% of the control value. Such an in vivo test is carried out as follows:
# Groups of mice are injected with the test substance at different doses and usually subcutaneously. 15 minutes later, ^3 H-flunitrazepam is given intravenously to the mice and after an additional 20 minutes, the mice are killed. Their forebrain membranes are removed and the radioactivity of the forebrain membranes is measured by scintillation counting. The ED50 value is determined from dose-response curves.
# mice = assay: Inhibition of aggression in isolated male mice; type: in vivo; conditions: Mus musculus, sc, 0.5 h, s.c., 1/2 hour, read-out: ED50 inhibition of agression (1/2h)
# Experimental: The inhibition of aggression has been determined on male mice (NMR from Mollegaard, Denmark) having a weight of 20-22 g. The mice are isolated for 3 weeks in plastic cages and when two mice subsequently are brought into the same cage, they will spontaneously and almost instantaneously start fighting. […] J. Pharmacol., 1978, 47, 45-49. The compounds of the invention were administered subcutaneously and orally and the antiaggressive effect after 1/2 hour was determined. Based on the data obtained, the ED50 value has been calculated.
# [1] = Acute toxicity in mice (deaths within 24 hours); conditions: mouse, in vivo
# Experimental: The acute toxicity in mice was determined by recording the number of deaths within 24 hours.
# [2] = Inhibition of motor coordination (ataxia) in mice; conditions: mouse, in vivo, sc, 30 minutes after s.c. administration, read-out: ED50 Ataxia (Motor incoordination)
# Experimental: The inhibition of motor coordination in mice was also studied 30 minutes after subcutaneous administration in accordance with a method described in the literature (Buus Lassen et al, Acta pharmacol. et toxicol., 1971, 39, 1-16).
# rats [3] = assay: Inhibition of exploratory motility in rats (sedative effect); type: in vivo; conditions: Rattus norvegicus, sc, 0.5 h, 30 min after s.c. administration, first 10 min in novel cage
# Experimental: Inhibition of exploratory motility in rodents is a widely used test for sedative effect. A compound of this invention and two well known tranquilizers have been subjected to such a test.
# 30 Minutes after subcutaneous administration of physiological saline and test substances, rats were transferred to a novel cage and the motility was measured for the first 10 minutes. The ED50 is the dose inhibiting the motility by 50% as compared to the controls.
# rats [4] = assay: Motility of rats in familiar cages during rest period (awakening effect); type: in vivo; conditions: for motility versus saline control: 4 hours; for behavior during the experimental (rest) period: ethyl ester 20-100 mg/kg s.c., methylamide 20-100 mg/kg p.o., amphetamine s.c.
# Experimental: Normal locomotion, grooming and eating occur during the dark period and rest during the light period. If CNS stimulants are given to rats which have stayed in their cages for several hours, a pronounced hypermotility is observed during the light period (Buus Lassen, Psychopharmacologia 1973, 29, 55-64; Kallman and Isaac, Psychopharmacologia 1975, 40, 313-318).
# Psysiological saline and test substances were administered s.c. or p.o. to rats kept in familiar cages. The motility was measured for 4 hours (2 periods of 2 hours) after administrations. The motility of groups receiving test substances was compared (Student's t-test) with the motility of the saline-treated control group.
SMILES,"IC50 in vitro, inhibition of 3H-flunitrazepam binding (benzodiazepine receptors)","ED50 in vivo, inhibition of 3H-flunitrazepam binding (benzodiazepin receptors)",ED50 (mice),other results
CN1CCN(C(=O)c2cc3c(cn2)[nH]c2ccccc23)CC1,> 4 µg/mL,> 250 mg/kg s.c.,,
"CCCCCOC(=O)c1cc2c(cn1)[nH]c1ccccc12 [OC5 H11, n-pentyl β-carbolin-3-carboxylate]",0.012 µg/mL,> 250 mg/kg s.c.,50 mg/kg,
"CCNC(=O)c1cc2c(cn1)[nH]c1ccccc12 [NH(C2 H5), β-carbolin-3-carboxylic acid N-ethylamide]",0.11 µg/mL,42 mg/kg s.c.,18 mg/kg,LD50 at 24 h [1]: > 250 mg/kg; TD50 at 0.5 h [2]: > 100 mg/kg
NC(=O)CNC(=O)c1cc2c(cn1)[nH]c1ccccc12 [NH(CH2 CONH2)],0.92 µg/mL,> 250 mg/kg s.c.,,
"CN1C(=O)CN=C(c2ccccc2)c2cc(Cl)ccc21 [Diazepam, reference compound]",,,3 mg/kg,ED50 (rats [3]): 0.4 mg/kg; motility versus saline control (rats [4]; 10-20 mg/kg s.c.): did not influence motility
"CC(N)Cc1ccccc1 (centres unmarked) [Amphetamine, reference compound]",,,,"motility versus saline control (rats [4]; 0.5-5 mg/ig s.c.): produced a significant hypermotility; behavior during the experimental (rest) period (rats [4]): continuous, stereotyped sniffing, rearing and licking on the cage walls; behavior during the experimental (rest) period (rats [4]; listed as amphetamine): induced an abnormal behavior which never occurs in saline-treated control rats"
"CNC(=O)c1cc2c(cn1)[nH]c1ccccc12 [NH(CH3), β-carbolin-3-carboxylic acid methylamide]",0.1 µg/mL,25 mg/kg s.c.,,"motility versus saline control (rats [4]; 20-100 mg/kg p.o., Student's t-test): increased the motility significantly (P<0.001); behavior during the experimental (rest) period (rats [4]): appeared more alert than the controls during the experimental period and showed more spells of locomotion, eating and grooming"
"CCOC(=O)c1cc2c(cn1)[nH]c1ccccc12 [OC2 H5, β-carbolin-3-carboxylic acid ethyl ester]",0.0014 µg/mL,60 mg/kg s.c.,4 mg/kg,"ED50 (rats [3]): > 100 mg/kg; motility versus saline control (rats [4]; 20-100 mg/kg s.c., Student's t-test): increased the motility significantly (P<0.001); behavior during the experimental (rest) period (rats [4]): appeared more alert than the controls during the experimental period and showed more spells of locomotion, eating and grooming; LD50 at 24 h [1]: > 500 mg/kg; TD50 at 0.5 h [2]: > 100 mg/kg"
"CN(C(=O)c1cc2c(cn1)[nH]c1ccccc12)c1ccccc1 [N CH3 (C6 H5), N-methyl-N-phenyl-β-carbolin-3-carboxamide]",> 4 µg/mL,> 250 mg/kg s.c.,,
CCOC(=O)CNC(=O)c1cc2c(cn1)[nH]c1ccccc12 [NH(CH2 COOC2 H5)],0.16 µg/mL,> 250 mg/kg s.c.,,
"CCNC(=O)c1cc2c3ccccc3n(C(=O)OCC)c2cn1 [NH(C2 H5), COOC2 H5, 9-carbethoxy β-carbolin-3-carboxylic acid, ethylamide]",0.16 µg/mL,> 100 mg/kg s.c.,,
"O=C(NC1CC1)c1cc2c(cn1)[nH]c1ccccc12 [NH(C3 H5), N'-cyclopropyl-β-carbolin-3-carboxamide]",0.044 µg/mL,38 mg/kg s.c.,,
O=C(NCCO)c1cc2c(cn1)[nH]c1ccccc12 [NH(CH2 CH2 OH)],0.2 µg/mL,56 mg/kg s.c.,,
O=C(c1cc2c(cn1)[nH]c1ccccc12)N1CCCC1,3.3 µg/mL,> 250 mg/kg s.c.,,
"CCN(CC)C(=O)c1cc2c(cn1)[nH]c1ccccc12 [N C2 H5 (C2 H5), β-carbolin-3-carboxylic acid diethylamide]",4.3 µg/mL,82 mg/kg s.c.,35 mg/kg,
CC(C)NC(=O)c1cc2c(cn1)[nH]c1ccccc12 [NH(iso-C3 H7)],0.15 µg/mL,23 mg/kg s.c.,75 mg/kg,
O=C(c1cc2c(cn1)[nH]c1ccccc12)N1CCCCC1,0.36 µg/mL,> 250 mg/kg s.c.,,
O=C(NCc1ccccc1)c1cc2c(cn1)[nH]c1ccccc12 [NH(CH2 C6 H5)],0.017 µg/mL,> 250 mg/kg s.c.,,
"CNC1=Nc2ccc(Cl)cc2C(c2ccccc2)=[N+]([O-])C1 [Chlordiazepoxide, reference compound]",,,45 mg/kg,ED50 (rats [3]): 1.2 mg/kg; LD50 at 24 h [1]: 700 mg/kg; TD50 at 0.5 h [2]: 50 mg/kg

# — US4371536A, “β-Carbolin-3-carboxylic acid derivatives” (A/S Ferrosan, priority 1979, dated 1983)
